System: NEP
Assay: Degradation of peptide substrates by NEP: extent and cleavage sites (HPLC, mass spectrometry)
Conditions: NEP and mutants, 20 mM MES pH 6.5, 37°C
Method: Degradation of insulin B chain by wild-type NEP was analyzed by reverse-phase HPLC following the appearance of each product as a function of time, Figure 1 . Product peaks were collected and subsequently analyzed by mass spectrometry to determine their identities. […] Based on the order of appearance of each peak, it is likely that insulin B chain1–10, insulin B chain1–11, insulin B chain1–14 and its partner peak insulin B chain15–30, insulin B chain17–30, and insulin B chain24–30 are all products of primary cleavages. These products appear at the first time point when approximately 15% hydrolysis of insulin B chain had occurred (30 minutes). At 30% hydrolysis (90 min.), peaks corresponding to insulin B chain1–5 and insulin B chain17–24 are observed. Peaks for insulin B chain1–16 and insulin B chain15–23 become apparent at >30% insulin B chain hydrolysis. […] It is likely that these are transient products that are subsequently cleaved contributing to other product peaks (i.e. insulin B chain24–30).
To further study the effect of mutations on cleavage site specificity, time course assays were also performed for the hydrolysis of the physiological substrate Aß1–40. Like the analysis of insulin B chain, a time course assay was first done with NEP to identify cleavage products, Figure 3 and Table 6 . After 15% hydrolysis of Aß1–40 (150 min.) by NEP there were six discernable product peaks corresponding to Aß1–16, Aß1–17, Aß10–17, Aß20–28, Aß20–29, and Aß20–30. […]
Cleavage of physiological peptides was measured via reverse phase high performance liquid chromatography (HPLC) following incubation of the purified NEP or its mutants with 15 µM insulin B chain (Sigma Aldrich), 24 µM Aß1–40 (Anaspec), or 64 µM leu-ENK (Sigma) in 100 µL of 20 mM MES, pH 6.5, at 37°C. […] Peptides and hydrolysis products were detected at 214 nm and quantified by measuring peak areas. Peptides obtained from HPLC were analyzed on an Applied Biosystems 4800 MALDI TOF/TOF Proteomics Analyzer at the University of Kentucky Proteomics core. […]

Tyr-Gly-Gly-Phe-Leu [leu-ENK, leucine^5-enkephalin, leucine5-enkephalin (Tyr-Gly-Gly-Phe-Leu), physiological substrate]
Cleavage site (bond cleaved): Gly-Phe bond

From publication PMC3285688, “Active Site Mutations Change the Cleavage Specificity of Neprilysin” (PLoS ONE, 2012)
